pIC50: −log10 of the molar value. The source made the active and inactive calls. The rule behind the calls is not given here.
What was measured:
Influenza A virus [1] = test: Antiviral activity against Influenza A virus (A/Puerto Rico/8/34 (H1N1) infected in MDCK cells assessed as decrease in viral titer preincubated for 1 hr followed by viral infection and cultivated for 48 hrs followed by supernatant transferred to chicken erythrocyte for 1 hr followed by measuring ability to cause positive hemagglutination; assay type: functional, organism-based; details: A/Puerto Rico/8/1934(H1N1)
[2] = Selectivity index, ratio of CC50 for MDCK cells to IC50 for Influenza A virus (A/Puerto Rico/8/34 (H1N1)) infected in MDCK cells; assay type: toxicity, cell-based; details: dog, read-out: Ratio CC50/IC50
[3] = Cytotoxicity against MDCK cells assessed as cell death incubated for 48 hrs by MTT assay; assay type: cell-based, Canis lupus familiaris; details: dog
Influenza A virus [4] = test: Antiviral activity against Influenza A virus (A/Puerto Rico/8/34(H1N1)) pdm09 infected in MDCK cells assessed as inhibition of virus infection at early stage by time of addition experiment; assay type: functional, organism-based; details: A/Puerto Rico/8/1934(H1N1)
[5] = test system: Influenza A virus (A/Puerto Rico/8/1934(H1N1)); test: Inhibition of Hemagglutinin in Influenza A virus (A/Puerto Rico/8/34(H1N1)); details: dose 0-300 µg/ml

Row | SMILES | pIC50 (Influenza A virus [1]) | selectivity ratio [2] | CC50 at 48 h [3] [µM] | Activity (Influenza A virus [4]) | inhibition [5]
1 | C[C@@H]1CC[C@@H]2[C@@H](C1)O[C@@H](c1ccc([N+](=O)[O-])cc1)CC2(C)O (some centres undefined) | 3.41 | 3 | > 982 |  | 
2 | C[C@@H]1CC[C@@H]2[C@@H](C1)O[C@@H](c1ccccc1O)CC2(C)F (some centres undefined) | < 4.44 | 1 | 44 |  | 
3 | C[C@@H]1CC[C@@H]2[C@@H](C1)O[C@@H](c1ccccc1)CC2(C)F (some centres undefined) | < 4.42 | 2 | 65 |  | 
4 | C[C@@H]1CC[C@@H]2[C@@H](C1)O[C@@H](c1ccc(O)cc1)CC2(C)F (some centres undefined) | < 4.44 | 3 | 95 |  | 
5 | C[C@@H]1CC[C@@H]2[C@@H](C1)O[C@@H](c1ccccc1O)CC2(C)O (some centres undefined) | < 2.96 | 1 | > 1090 |  | 
6 | COc1ccc([C@H]2CC(C)(O)[C@@H]3CC[C@@H](C)C[C@H]3O2)c(OC)c1 (some centres undefined) | 4.11 | 12 | > 937 |  | 
7 | COc1cc([C@H]2CC(C)(F)[C@@H]3CC[C@@H](C)C[C@H]3O2)ccc1O (some centres undefined) | < 3.49 | 2 | 642 |  | 
8 | C[C@@H]1CC[C@@H]2[C@@H](C1)O[C@@H](c1ccc(O)cc1)CC2(C)O (some centres undefined) | 4.06 | 1 | 127 |  | 
9 | C[C@@H]1CC[C@@H]2[C@@H](C1)O[C@@H](c1ccc(Br)cc1)CC2(C)O (some centres undefined) | < 4.05 | 1 | 132 |  | 
10 | C[C@@H]1CC[C@@H]2[C@@H](C1)O[C@@H](c1ccc(Cl)cc1)CC2(C)F (some centres undefined) | 4.54 | 2 | 57 |  | 
11 | COc1cc([C@H]2CC(C)(O)[C@@H]3CC[C@@H](C)C[C@H]3O2)cc(OC)c1OC (some centres undefined) | < 3.55 | 1 | 405 |  | 
12 | CC(N)C12CC3CC(CC(C3)C1)C2 (centres undefined) [RIMANTADINE] | 4.16 | 5 | 326 |  | 
13 | COc1ccc([C@H]2CC(C)(F)[C@@H]3CC[C@@H](C)C[C@H]3O2)cc1OC (some centres undefined) | < 5.05 | 2 | 20 |  | 
14 | COc1ccc([C@H]2CC(C)(O)[C@@H]3CC[C@@H](C)C[C@H]3O2)c(OC)c1OC (some centres undefined) | 3.14 | 1 | > 857 |  | 
15 | C[C@@H]1CC[C@@H]2[C@@H](C1)O[C@@H](c1ccc([N+](=O)[O-])cc1)CC2(C)F (some centres undefined) | < 3.01 | 1 | > 976 |  | 
16 | COc1ccc(OC)c([C@H]2CC(C)(F)[C@@H]3CC[C@@H](C)C[C@H]3O2)c1 (some centres undefined) | < 4.51 | 1 | 37 |  | 
17 | COc1cc([C@H]2CC(C)(F)[C@@H]3CC[C@@H](C)C[C@H]3O2)cc(OC)c1OC (some centres undefined) | 3.70 | 3 | 568 |  | 
18 | COc1cc(OC)c([C@H]2CC(C)(F)[C@@H]3CC[C@@H](C)C[C@H]3O2)cc1OC (some centres undefined) | 5.22 | 13 | 78 |  | 
19 | NC(=O)c1ncn([C@@H]2O[C@H](CO)[C@@H](O)[C@H]2O)n1 [RIBAVIRIN] | 4.46 | 61 | > 2130 |  | 
20 | COc1ccc([C@H]2CC(C)(F)[C@@H]3CC[C@@H](C)C[C@H]3O2)c(OC)c1 (some centres undefined) | 3.81 | 2 | 379 |  | 

Row | SMILES | pIC50 (Influenza A virus [1]) | selectivity ratio [2] | CC50 at 48 h [3] [µM] | Activity (Influenza A virus [4]) | inhibition [5]
21 | COc1ccc(OC)c([C@H]2CC(C)(O)[C@@H]3CC[C@@H](C)C[C@H]3O2)c1 (some centres undefined) | < 3.51 | 2 | 512 |  | 
22 | COc1ccc([C@H]2CC(C)(O)[C@@H]3CC[C@@H](C)C[C@H]3O2)cc1 (some centres undefined) | 4.54 | 24 | 689 |  | 
23 | COc1cccc([C@H]2CC(C)(O)[C@@H]3CC[C@@H](C)C[C@H]3O2)c1OC (some centres undefined) | < 3.03 | 1 | > 937 |  | 
24 | COc1cccc([C@H]2CC(C)(F)[C@@H]3CC[C@@H](C)C[C@H]3O2)c1OC (some centres undefined) | 4.37 | 4 | 180 |  | 
25 | COc1cc(OC)c([C@H]2CC(C)(F)[C@@H]3CC[C@@H](C)C[C@H]3O2)c(OC)c1 (some centres undefined) | 4.62 | 35 | 851 | Active | Dose-dependent effect
26 | C[C@@H]1CC[C@@H]2[C@@H](C1)O[C@@H](c1ccc(Br)cc1)CC2(C)F (some centres undefined) | 3.41 | 2 | > 882 |  | 
27 | COc1cc([C@H]2CC(C)(F)[C@@H]3CC[C@@H](C)C[C@H]3O2)cc(OC)c1O (some centres undefined) | 4.23 | 3 | 158 |  | 
28 | COc1ccc([C@H]2CC(C)(F)[C@@H]3CC[C@@H](C)C[C@H]3O2)c(OC)c1OC (some centres undefined) | 5.22 | 22 | 133 |  | 
29 | COc1cc(OC)c([C@H]2CC(C)(O)[C@@H]3CC[C@@H](C)C[C@H]3O2)cc1OC (some centres undefined) | < 3.07 | 1 | > 857 |  | 
30 | COc1ccc([C@H]2CC(C)(F)[C@@H]3CC[C@@H](C)C[C@H]3O2)cc1 (some centres undefined) | < 3.99 | 2 | 171 |  | 
31 | C[C@@H]1CC[C@@H]2[C@@H](C1)O[C@@H](c1ccc(F)cc1)CC2(C)O (some centres undefined) | < 4.44 | 2 | 65 |  | 
32 | COc1ccc([C@H]2CC(C)(O)[C@@H]3CC[C@@H](C)C[C@H]3O2)cc1O (some centres undefined) | 3.93 | 6 | 738 |  | 
33 | COc1ccc([C@H]2CC(C)(O)[C@@H]3CC[C@@H](C)C[C@H]3O2)cc1OC (some centres undefined) | 3.46 | 3 | > 937 |  | 
34 | COc1cc(OC)c([C@H]2CC(C)(O)[C@@H]3CC[C@@H](C)C[C@H]3O2)c(OC)c1 (some centres undefined) | 4.72 | 45 | 856 | Active | Dose-dependent effect
35 | C[C@@H]1CC[C@@H]2[C@@H](C1)O[C@@H](c1ccc(Cl)cc1)CC2(C)O (some centres undefined) | < 4.43 | 2 | 62 |  | 
36 | C[C@@H]1CC[C@@H]2[C@@H](C1)O[C@@H](c1ccccc1)CC2(C)O (some centres undefined) | 4.00 | 6 | 580 |  | 
37 | C[C@@H]1CC[C@@H]2[C@@H](C1)O[C@@H](c1ccc(F)cc1)CC2(C)F (some centres undefined) | < 4.44 | 2 | 68 |  | 
38 | COc1cc([C@H]2CC(C)(O)[C@@H]3CC[C@@H](C)C[C@H]3O2)ccc1O (some centres undefined) | < 3.49 | 1 | 411 |  | 
39 | COc1ccc([C@H]2CC(C)(F)[C@@H]3CC[C@@H](C)C[C@H]3O2)cc1O (some centres undefined) | < 4.49 | 4 | 136 |  | 
40 | COc1cc([C@H]2CC(C)(O)[C@@H]3CC[C@@H](C)C[C@H]3O2)cc(OC)c1O (some centres undefined) | 3.63 | 2 | 473 |  | 

From ChEMBL document CHEMBL4673281, “Influenza antiviral activity of F- and OH-containing isopulegol-derived octahydro-2H-chromenes” (Bioorg Med Chem Lett, 2021)
